# Assay results reported in US5444042A, “Method of treatment of neurodegeneration with calpain inhibitors” (Cortex Pharmaceuticals, priority 1994, dated 1995).
# Where a SMILES comes first, the peptide text is derived from it. The star is where a group is joined. Cbz = O=C(OCc1ccccc1)*; CH2Cl = ClC*
# What was measured:
# Papain = molecular target: T1, Papain (Carica papaya, UniProt P00784); test: Papain inhibition, Ki by Dixon plot (Table PKC1); type: biochemical; conditions: 0.05M Tris-HCl pH 7.5, 2 mM EDTA, 5 mM cysteine, 1% DMSO, 25° C., substrate Nα-Benzoyl-Arg-AMC; read-out: Ki P (Papain)
# T1 sequence (P00784 134-345): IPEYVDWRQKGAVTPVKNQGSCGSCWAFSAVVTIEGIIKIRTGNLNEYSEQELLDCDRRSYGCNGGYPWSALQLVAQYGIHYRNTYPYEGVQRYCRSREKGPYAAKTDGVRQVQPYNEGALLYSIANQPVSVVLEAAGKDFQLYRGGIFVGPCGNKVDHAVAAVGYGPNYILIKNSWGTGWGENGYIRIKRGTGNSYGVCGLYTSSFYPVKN
# Method: (§1) Various concentrations of inhibitors in dimethylsulfoxide (DMSO) were added to the assay mixture, which contained buffer and substrate. The reaction was started by the addition of the enzyme and the hydrolysis rates were followed spectrophotometrically or fluorimetrically. 88 mM KH2 PO4, 12 mM Na2 HPO4, 1.33 mM EDTA, 2.7 mM cysteine, pH 6.0 was used as a buffer for cathepsin B; and 20 mM Hepes, 10 mM CaCl2, 10 mM β-mercaptoethanol, pH 7.2 buffer was utilized for calpain I and calpain II.
# (§2) All peptide thioester hydrolysis rates were measured with assay mixtures containing 4,4'-dithiodipyridine [e324=19800 M-1 cm-1; Grasetti & Murray, Arch. Biochem. Biophys. 119, pp 41-49 (1967)]. Papain was assayed with Bz-Arg-AMC or Bz-Arg-NA [Kanaoka et al., Chem. Pharm. Bull. 25, 3126-3128 (1977)], and the AMC (7-amino-4-methylcoumarin) release was followed fluorimetrically (excitation at 380 nm, and emission at 460 nm). Cathepsin B was assayed with Z-Arg-Arg-AFC [Barrett and Kirschke, Methods Enzymol. 80, 535-561 (1981)], and the AFC (7-amino-4-trifluoromethylcoumarin) release was followed fluorimetrically (excitation at 400 nm, and emission at 505 nm). Calpain I from human erythrocytes and calpain II from rabbit were assayed using Suc-Leu-Tyr-AMC [Sasaki et al., J. Biol. Chem. 259, 12489-12494 (1984), hereby incorporated by reference], and the AMC (7-amino-4-methylcoumarin) release was followed fluorimetrically (excitation at 380 nm, and emission at 460 nm). Enzymatic hydrolysis rates were measured at various substrate and inhibitor concentrations, and Ki values were determined by Dixon plot.
# The inhibition constants for papain shown in Table PKC1 were measured in 0.05M Tris-HCl, pH 7.5 buffer, containing 2 mM EDTA, 5 mM cysteine (freshly prepared), 1% DMSO, at 25° C., using N^α -Benzoyl-Arg-AMC as a substrate, except that those values of inhibition constants for papain marked with an "e" in Table PKC1 were measured in 50 mM Tris-HCl, pH 7.5 buffer, containing 20 mM EDTA, 5 mM cysteine, 9% DMSO, at 25° C., using N^α -Benzoyl-Arg-NA as a substrate.
# [1] = molecular target: T2, Calpain I from human erythrocytes (Homo sapiens, UniProt P07384); test: Calpain I inhibition, Suc-Leu-Tyr-AMC (Table PKC1); type: biochemical; conditions: 20 mM Hepes, 10 mM CaCl2, 10 mM β-mercaptoethanol, pH 7.2; read-out: Ki CI (Calpain I)
# T2 construct: Calpain I from human erythrocytes and calpain II from rabbit were assayed using Suc-Leu-Tyr-AMC; from tissue; host or cells: human erythrocytes
# T2 sequence (P07384 1-714): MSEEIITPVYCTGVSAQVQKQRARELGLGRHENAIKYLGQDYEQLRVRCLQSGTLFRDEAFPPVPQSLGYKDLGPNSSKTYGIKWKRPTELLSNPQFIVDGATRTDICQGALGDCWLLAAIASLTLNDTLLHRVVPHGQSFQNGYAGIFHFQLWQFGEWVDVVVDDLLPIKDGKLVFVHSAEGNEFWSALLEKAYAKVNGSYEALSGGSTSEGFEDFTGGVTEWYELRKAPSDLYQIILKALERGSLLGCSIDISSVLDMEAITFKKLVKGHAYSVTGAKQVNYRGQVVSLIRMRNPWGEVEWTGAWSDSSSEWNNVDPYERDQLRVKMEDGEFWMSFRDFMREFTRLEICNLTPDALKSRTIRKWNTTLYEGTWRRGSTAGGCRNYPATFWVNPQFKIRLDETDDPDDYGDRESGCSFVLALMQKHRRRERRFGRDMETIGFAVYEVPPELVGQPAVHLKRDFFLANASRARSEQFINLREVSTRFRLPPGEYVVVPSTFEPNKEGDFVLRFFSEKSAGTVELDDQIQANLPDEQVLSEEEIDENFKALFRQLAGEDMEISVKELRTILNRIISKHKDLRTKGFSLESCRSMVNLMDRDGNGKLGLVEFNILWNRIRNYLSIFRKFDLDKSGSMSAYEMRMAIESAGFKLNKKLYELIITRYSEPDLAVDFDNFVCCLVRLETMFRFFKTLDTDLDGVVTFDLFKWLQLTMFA
# T2 sequence (P04632 1-268 partner): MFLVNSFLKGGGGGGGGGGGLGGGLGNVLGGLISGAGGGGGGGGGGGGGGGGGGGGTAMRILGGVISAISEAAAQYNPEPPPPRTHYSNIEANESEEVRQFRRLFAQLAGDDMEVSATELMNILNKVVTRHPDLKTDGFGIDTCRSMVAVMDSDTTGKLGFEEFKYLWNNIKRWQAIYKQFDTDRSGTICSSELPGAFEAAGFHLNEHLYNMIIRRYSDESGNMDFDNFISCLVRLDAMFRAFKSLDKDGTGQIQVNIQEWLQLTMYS
# Method: as §1, with “Our discovery of Peptide Keto-Compounds effective as Calpain Inhibitors was made through assay of the Peptide Keto-Compounds as reversible inhibitors. Various” for “Various”
# as §2
# Cathepsin B = Cathepsin B (Bos taurus, UniProt P07688); test: Cathepsin B inhibition, Z-Arg-Arg-AFC (Table PKC1); type: biochemical; conditions: pH 6.0 phosphate buffer, substrate Z-Arg-Arg-AFC; read-out: Ki CB (Cathepsin B)
# Method: as §1, §2
# Calpain II [2] = test: Kapp/[I] progress curve method, Calpain II (Table 1C); type: biochemical; parameters: unit not given here; conditions: Rabbit Calpain II, Suc-leu-tyr-amidomethylcoumarin
# Method: The Halo-Ketone Peptides, like the substituted isocoumarins, are irreversible inhibitors of Calpain. We determined the Kapp /[I] values for various members of this class of compounds against Calpains I and II. For comparison, we also determined these values against the additional thiol proteases Papain and Cathepsin B for at least one Halo-Ketone Peptide.
# We assayed Calpain I and II using Suc-leu-tyr-amidomethylcoumarin. Papain was assayed using benzoyl-arg-4-nitroanilide, and Cathepsin B (bovine) was assayed using CBZ-lys-4-nitrophenyl ester. We followed the progress curve method of Tian and Tsou, Biochemistry, 21:1028-1032 (1982), the disclosure of which is hereby incorporated by reference, to derive kinetic data. Briefly, this method makes use of the equation: [formula] where [P.infin. ] represents the concentration of product formed at a time approaching infinity, A is the Kapp in the presence of substrate (S), K is the Michaelis constant and [Y] is the concentration of the inhibitor. Since [S] and [Y] are known and V and K can be determined, Kapp can be readily determined.
# Calpain I = molecular target: T3, Calpain I (Homo sapiens, UniProt P07384); test: Calpain I 14C-methylated casein proteolysis (Table 1A); type: biochemical
# T3 sequence (P07384 1-714): T2 sequence (P07384 1-714)
# T3 sequence (P04632 1-268 partner): T2 sequence (P04632 1-268 partner)
# Method: (§3) The isocoumarins are irreversible inhibitors of Calpain. We obtained IC50 values for a variety of these Calpain Inhibitors as a kinetic analysis of these compounds.
# (§4) Calpains I and II were purified by the method of (Yoshimura, et al. 1983). (Kitahara 1984) provides an alternative purification scheme. Calpain II may alternatively be purchased from Sigma Chemical Co. as "Calcium Activated Neutral Protease." In this assay, purified Calpain was incubated with ^14 C-methylated casein in the presence of various Heterocyclic Compounds and the amount of acid-soluble radioactivity released by the action of Calpain was measured.
# [3] = tested on: Calpain in crude brain extracts; test: Ca2+-stimulated spectrin proteolysis in crude brain extracts (Example 2); type: biochemical; conditions: 100 μM
# Method in brief: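 Brain tissue was homogenized in 10 mM Tris pH 7.4, 0.32 M sucrose, 1 mM EGTA and 1 mM DTT, and nuclei and debris were removed. Calpain activity was scored as Ca^2+-stimulated proteolysis of endogenous spectrin.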
# Calpain within platelets = test: Platelet membrane permeation assay, spectrin proteolysis (Examples 4A, 4B); type: cell-based, rat; conditions: 100 μM, A23187 1 μM
# Method in brief: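 Rat (Sprague-Dawley) platelets at 10^7 cells/ml in HEPES buffer pH 7.4, preincubated 5 min with inhibitor, then 5 min with 1 μM A23187 to activate calpain. Spectrin proteolysis assessed by SDS-PAGE and anti-spectrin immunoblot, quantified by densitometry.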
# Calpain II [4] = molecular target: T4, Calpain II (Homo sapiens, UniProt P17655); test: Calpain II 14C-methylated casein proteolysis (Table 1A); type: biochemical
# T4 construct: from tissue; purified by a cited method
# T4 sequence (P17655 1-700): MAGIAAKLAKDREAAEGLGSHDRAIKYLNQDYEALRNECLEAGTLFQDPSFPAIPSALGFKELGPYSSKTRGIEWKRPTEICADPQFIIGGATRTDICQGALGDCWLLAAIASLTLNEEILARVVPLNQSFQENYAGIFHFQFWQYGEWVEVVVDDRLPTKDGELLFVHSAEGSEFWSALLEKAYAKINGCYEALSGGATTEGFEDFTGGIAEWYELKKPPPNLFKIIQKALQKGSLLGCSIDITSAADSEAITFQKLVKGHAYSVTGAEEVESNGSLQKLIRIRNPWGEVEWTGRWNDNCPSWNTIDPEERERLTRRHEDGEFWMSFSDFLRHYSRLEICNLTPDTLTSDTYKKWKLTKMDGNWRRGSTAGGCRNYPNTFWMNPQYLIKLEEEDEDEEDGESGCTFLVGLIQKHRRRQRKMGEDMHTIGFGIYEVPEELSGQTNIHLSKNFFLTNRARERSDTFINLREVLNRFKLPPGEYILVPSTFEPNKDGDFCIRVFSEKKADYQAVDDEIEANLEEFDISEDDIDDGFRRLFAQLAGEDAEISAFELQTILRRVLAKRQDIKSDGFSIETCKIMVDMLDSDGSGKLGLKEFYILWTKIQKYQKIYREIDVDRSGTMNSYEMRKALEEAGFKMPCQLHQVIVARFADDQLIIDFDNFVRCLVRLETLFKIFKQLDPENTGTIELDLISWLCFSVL
# T4 sequence (P04632 1-268 partner): T2 sequence (P04632 1-268 partner)
# Method: as §3, §4
# N18-RE-105 cells = test: Glutamate-induced cell death, MTT conversion (Example 5); type: cell-based; conditions: 5 mM glutamate, inhibitor 3 μg/ml, 19 hours
# Method: Stock cultures of N18-RE-105 cells were maintained in Dulbecco's modified Eagle's medium (DMEM) containing 10% fetal bovine serum (FBS) and supplemented with hypoxanthine, aminopterin and thymidine (HAT). Subconfluent cultures were split and plated into 96-well plates. Twenty-four hours after plating the cells were exposed to fresh media containing glutamate and various concentrations of Calpain inhibitors. Control cells were not treated with glutamate. Conversion of MTT was measured 19 hours later as described. Nineteen hours after the onset of exposure, cell viability was quantitated by measuring the extent to which the cells convert 3(4,5-dimethylthiazol-2-yl)-2-5-diphenyltetrazolium bromide (MTT) to a blue formazan product, which occurs in the mitochondria of living but not dead cells (Pauwels et al., 1988). A higher absorbance is indicative of greater cell viability.
SMILES,Kapp/[I] CII (Calpain II [2]),inhibition of spectrin proteolysis in crude brain extracts [3],inhibition of Calpain within platelets (Calpain within platelets),further results
"CCOC(=O)C(=O)C(C)NC(=O)C(C)NC(=O)C(C)NC(=O)OCc1ccccc1 (racemic) [Z-Ala-Ala-DL-Ala-COOEt, Z-Ala-Ala-DL-Ala-CO2 Et]",–,–,–,Ki (Papain): 1.5 µM; Ki [1]: 200 µM; Ki (Cathepsin B): 2.2 µM
CC(=O)NC(C)C(=O)NC(C)C(=O)NC(C)C(=O)NC(C)C(=O)CCl (stereo not drawn) [Ac-Ala-Ala-Ala-Ala-CH2 Cl] (Ac-AAAA-CH2Cl; configuration not given here),1300,–,–,–
"N=C(N)SCCOc1oc(=O)c2cc(NC(=O)[C@H](N)Cc3ccccc3)ccc2c1Cl [D-Phe-NH-CiTEtOIC, 7-(D-phenylalanylamino)-4-chloro-3-(2-isothiureidoethoxy)isocoumarin]",–,significant inhibition,significant inhibition,IC50 (Calpain I): 200 µM
"N=C(N)SCCCOc1oc(=O)c2cc(NC(=O)[C@@H](N)Cc3ccccc3)ccc2c1Cl [L-Phe-NH-CiTPrOIC, 7-(L-phenylalanylamino)-4-chloro-3-(3-isothiureidopropoxy)isocoumarin]",–,significant inhibition,significant inhibition,IC50 (Calpain II [4]): 30 µM
"N=C(N)SCCOc1oc(=O)c2cc(NC(=O)NCc3ccccc3)ccc2c1Cl [PhCH2 NHCONH-CiTEtOIC, 7-(benzylcarbamoylamino)-4-chloro-3-(2-isothiureidoethoxy)isocoumarin]",–,significant inhibition,significant inhibition,IC50 (Calpain I): 90 µM
"Cc1ccc(S(=O)(=O)N[C@@H](Cc2ccccc2)C(=O)CCl)cc1 [TPCK, Tosyl-PheCH2 Cl, reference compound]",–,–,–,blue formazan product relative to control without glutamate (N18-RE-105 cells): ≥ 100%
CC(NC(=O)OCc1ccccc1)C(=O)NC(Cc1ccccc1)C(=O)CCl (stereo not drawn) [Z-Ala-Phe-CH2 Cl],2400,–,–,–
CC(C)CC(NC(=O)CNC(=O)OCc1ccccc1)C(=O)NC(C)C(=O)CCl (stereo not drawn) [Z-Gly-Leu-Ala-CH2 Cl] (Cbz-Gly-Leu-Ala-CH2Cl; configuration not given here),210000,significant inhibition,–,–
CC(C)C(NC(=O)OCc1ccccc1)C(=O)NC(Cc1ccccc1)C(=O)CCl (stereo not drawn) [Z-Val-Phe-CH2 Cl] (Cbz-Val-Phe-CH2Cl; configuration not given here),27200,–,–,–
